# Source: US20180188266A1, “Characterization of Type 1 Collagen Synthesis By Fluorescence Imaging and Related Drug Screening Technique” (Florida State University Research Foundation, Inc., priority 2017, published 2018)
# System: Type 1 collagen synthesis
# Test: Confocal fluorescence imaging of Type 1 collagen synthesis in cells expressing COLa1(I)/mTagBFP2 + WT COLa2(I)/mEmerald
# Assay type: cell-based
# Details: fixed human lung fibroblasts expressing COLa1(I)/mTagBFP2+WT COLa2(I)/mEmerald; treated for 24 hours vs untreated cell
# Description: Three combinations of adenoviruses were used: • COLα1(I)/mTagBFP2 and WT COLα2(I)/mEmerald: images normal, regulated Type 1 collagen synthesis; • COLα1(I)/mTagBFP2 and MUT COLα2(I)/mEmerald: images collagen synthesis without regulation; and • COLα1(I)/mTagBFP2 and COLα2(I)/mEmeraldΔC: images absence of productive synthesis.
# Adenoviruses were mixed in a ratio determined by the viral titer and added to human lung fibroblasts in culture. After 48 hours the cells were either fixed in 3.7% formalin, mounted on glass slides and imaged or they were directly imaged as live cells.
# Confocal imaging of cells was performed either by Zeiss LSM 880 confocal microscope or Nikon Eclipse Ti laser spin disk confocal microscope in blue and green channels.
# The drug used in the confocal microscopy imaging experiments was compound 60D17 of U.S. Pat. No. 8,729,090, which is incorporated by reference. Compound 60D17 has the following formula.
structure (smiles),measurement,value
COC(=O)CNC(=O)c1cc2c(=O)n3cccc(C)c3nc2n1C [compound 60D17],"Effect on Type 1 collagen biosynthesis (confocal images, FIG. 4)",perturbed
